The results in this text go back to patent publication US12162878B2 (HINOVA PHARMACEUTICALS INC., priority 2018, dated 2024).

Broadly, the IC50 is the concentration that inhibits the measured activity by half. Higher therefore signals weaker potency in that assay.

The test concerns CWR22RV1 cells. In words: Inhibition of proliferation of CWR22RV1 cells (CCK-8). Format: cell-based, human. The note with it: Homo sapiens, CWR22Rv1, 144 h, 6 days. As for the experimental part: • CWR22RV1 cell line (Cell Bank of Chinese Academy of Sciences, TCHu100) • FBS (Gibco, Cat. No. 10099-141) • 0.01M PBS (Biosharp, Cat. No. 162262) • RIPM1640 (Hyclone, Cat. No. 308090.01) • Penicillin-Streptomycin (Hyclone, Cat. No. SV30010) • Cell counting kit-8 (Signalway Antibody, Cat. No. CP002) • DMSO (Sigma, Cat. No. D5879) • Centrifuge Tube, 15 ml (Excell Bio, Cat. No. CS015-0001) • Cell Culture Dish, (Excell Bio, Cat. No. CS016-0128) • 96-well cell culture cluster (Corning, Cat. No. 3599) • 2. Experimental method (1) Preparation of Buffer
1) CWR22RV1 cells were subcultured in cell culture medium, and the cells in good growth condition were seeded in a 96-well plate, 80 μL for each well, thus the number of cells per well was 1500, then the plate was cultured overnight in a 37° C., 5% CO2 cell incubator.
2) The drug was prepared with dimethyl sulfoxide (DMSO) as a 30 mM stock solution. Prior to use, the solution was diluted 3 times with DMSO, and then diluted with a 3-fold gradient to obtain 9 concentration gradients. Then, each concentration of the compound was further diluted 200 times with the culture solution (to ensure that DMSO concentration in the culture system was 0.1%), 2 repeat wells for each concentration. The diluted solution of each compound (20 μL) was added to the cell culture well (with a final concentration of 10 μM, 3.3 μM, 1.1 μM . . . ), and shaken gently for mixing. In addition, three negative control wells containing only cells and three blank control wells containing only culture medium (20 μL DMSO diluted 200 times with culture medium being added to six wells) were included.
(1) After culturing for 6 days, 10 μL CCK-8 was added to each well and cultured for additional 2.5 h in a 37° C., 5% CO2 cell incubator.
(2) The absorbance (OD value) at 450 nm was measured with a multifunctional microplate reader.
(3) The data was analyzed by the Dose-response-inhibition equation in the software GraphPad Prism6, and the IC50 value was obtained.
`CCS(=O)(=O)Nc1ccc(N2CCC3(CC2)CC3C(=O)O)c(-c2cn(C)c(=O)c3[nH]ccc23)c1` (stereo not shown) [Compound 20, 6-(4-(ethylsulfonamide)-2-(6-methyl-7-oxo-6,7-dihydro-1H-pyrrolo[2,3-c]pyridin-4-yl)phenyl)-6-aza-spiro[2.5]octan-1-carboxylic acid] gave an IC50 of 550 nM.

Regarding `Cn1cc(-c2cc(S(C)(=O)=O)ccc2N2CCC3(CC3)C2)c2cc[nH]c2c1=O` [Compound 24, 6-methyl-4-(5-(methylsulfonyl)-2-(5-aza-spiro[2.4]heptan-5-yl)phenyl)-1H-pyrrolo[2,3-c]pyridin-7(6H)-one], the IC50 stood at 17 nM.

Take `CCS(=O)(=O)c1ccc(N2CCC3(CC3)C2)c(-c2cn(C)c(=O)c3[nH]ccc23)c1` [Compound 25, 4-(5(ethylsulfonyl)-2-(5-aza-spiro[2.4]heptan-5-yl)phenyl)-6-methyl-1H-pyrrolo[2,3-c]pyridin-7(6H)-one]: the IC50 came to 26 nM.

In the case of `Cn1cc(-c2cc(S(C)(=O)=O)ccc2N2CCC3(CC2)CC3)c2cc[nH]c2c1=O` [Compound 26, 6-methyl-4-(5(methylsulfonyl)-2-(6-aza-spiro[2.5]octan-6-yl)phenyl)-1H-pyrrolo[2,3-c]pyridin-7(6H)-one], the IC50 was 6 nM.

In turn, `Cn1cc(-c2cc(S(C)(=O)=O)ccc2N2CCCC3(CC3)C2)c2cc[nH]c2c1=O` [Compound 27, 6-methyl-4-(5(methylsulfonyl)-2-(5-aza-spiro[2.5]octan-5-yl)phenyl)-1H-pyrrolo[2,3-c]pyridin-7(6H)-one] gave an IC50 of 31 nM.

Compound `Cn1cc(-c2cc(S(=O)(=O)C3CC3)ccc2N2CCCC3(CC3)C2)c2cc[nH]c2c1=O` [Compound 28, 4-(5-(cyclopropylsulfonyl)-2-(5-aza-spiro[2.5]octan-5-yl)phenyl)-6-methyl-1H-pyrrolo[2,3-c]pyridin-7(6H)-one] gave an IC50 of 36 nM.

In turn, `Cn1cc(-c2cc(S(=O)(=O)C3CC3)ccc2N2CC3(CCC3)C2)c2cc[nH]c2c1=O` [Compound 29, 4-(5-(cyclopropylsulfonyl)-2-(2-aza-spiro[3.3]heptan-2-yl)phenyl)-6-methyl-1H-pyrrolo[2,3-c]pyridin-7(6H)-one] returned an IC50 of 45 nM.

On to `Cn1cc(-c2cc(S(C)(=O)=O)ccc2N2CC3(CCC3)C2)c2cc[nH]c2c1=O` [Compound 30, 6-methyl-4-(5-(methylsulfonyl)-2-(2-aza-spiro[3.3]heptan-2-yl)phenyl)-1H-pyrrolo[2,3-c]pyridin-7(6H)-one], for which half-maximal inhibition (IC50) required 38 nM.

`Cn1cc(-c2cc(S(=O)(=O)C3COC3)ccc2N2CC3(CCC3)C2)c2cc[nH]c2c1=O` [Compound 31, 6-methyl-4-(5-(oxetane-3-ylsulfonyl)-2-(2-aza-spiro[3.3]heptan-2-yl)phenyl)-1H-pyrrolo[2,3-c]pyridin-7(6H)-one] displayed an IC50 of 50 nM.

In turn, `CCCCS(=O)(=O)c1ccc(N2CC3(CCC3)C2)c(-c2cn(C)c(=O)c3[nH]ccc23)c1` [Compound 32] returned an IC50 of 65 nM.

As for `CCS(=O)(=O)c1ccc(N2CC3(CCC3)C2)c(-c2cn(C)c(=O)c3[nH]ccc23)c1` [Compound 33, 4-(5-(ethylsulfonyl)-2-(2-aza-spiro[3.3]heptan-2-yl)phenyl)-6-methyl-1H-pyrrolo[2,3-c]pyridin-7(6H)-one], the IC50 is 45 nM.

`Cn1cc(-c2cc(S(C)(=O)=O)ccc2N2CC3(COC3)C2)c2cc[nH]c2c1=O` [Compound 34, 6-methyl-4-(5-(methylsulfonyl)-2-(2-oxa-6-aza-spiro[3.3]heptan-6-yl)phenyl)-1H-pyrrolo[2,3-c]pyridin-7(6H)-one] showed an IC50 of 380 nM.

`CCS(=O)(=O)c1ccc(N2CC3(COC3)C2)c(-c2cn(C)c(=O)c3[nH]ccc23)c1` [Compound 35, 4-(5-(ethylsulfonyl)-2-(2-oxa-6-aza-spiro[3.3]heptan-6-yl)phenyl)-6-methyl-1H-pyrrolo[2,3-c]pyridin-7(6H)-one] yielded an IC50 of 440 nM.

Regarding `CCCCS(=O)(=O)c1ccc(N2CC3(COC3)C2)c(-c2cn(C)c(=O)c3[nH]ccc23)c1` [Compound 36, 4-(5-(butylsulfonyl)-2-(2-oxa-6-aza-spiro[3.3]heptan-6-yl)phenyl)-6-methyl-1H-pyrrolo[2,3-c]pyridin-7(6H)-one], the IC50 was found to be 560 nM.

On to `Cn1cc(-c2cc(S(=O)(=O)C3CC3)ccc2N2CC3(COC3)C2)c2cc[nH]c2c1=O` [Compound 37, 4-(5-(cyclopropylsulfonyl)-2-(2-oxa-6-aza-spiro[3.3]heptan-6-yl)phenyl)-6-methyl-1H-pyrrolo[2,3-c]pyridin-7(6H)-one], for which the IC50 amounted to 490 nM.

`CCOC(=O)C1CC12CCN(c1ccc(S(C)(=O)=O)cc1-c1cn(C)c(=O)c3[nH]ccc13)CC2` (stereo not shown) [Compound 38, ethyl 6-(2-(6-methyl-7-oxo-6,7-dihydro-1H-pyrrolo[2,3-c]pyridin-4-yl)-4-(methylsulfonyl)phenyl)-6-azaspiro[2.5]octane-1-carboxylate] showed an IC50 of 410 nM.

`Cn1cc(-c2cc(S(C)(=O)=O)ccc2N2CCC3(CC2)CC3C(=O)O)c2cc[nH]c2c1=O` (stereo not shown) [Compound 39, 6-(2-(6-methyl-7-oxo-6,7-dihydro-1H-pyrrolo[2,3-c]pyridin-4-yl)-4-(methylsulfonyl)phenyl)-6-aza-spiro[2.5]octan-1-carboxylic acid] displayed an IC50 of 2410 nM.

`[2H]C([2H])([2H])n1cc(-c2cc(NS(=O)(=O)CC)ccc2N2CCC3(CC3)C2)c2cc[nH]c2c1=O` [Compound 40, N-(3-(7-oxo-6-(trideuteromethyl)-6,7-dihydro-1H-pyrrolo[2,3-c]pyridin-4-yl)-4-(5-aza-spiro[2.4]heptan-5-yl)phenyl)ethylsulfonamide]: it took 15 nM to reach half-maximal inhibition (IC50).

In turn, `[2H]C([2H])([2H])n1cc(-c2cc(NS(=O)(=O)CC)ccc2N2CCCC3(CC3)C2)c2cc[nH]c2c1=O` [Compound 42, N-(3-(6-trideuteromethyl-7-oxo-6,7-dihydro-1H-pyrrolo[2,3-c]pyridin-4-yl)-4-(5-aza-spiro[2.5]octan-5-yl)phenyl)ethylsulfonamide] gave an IC50 of 30 nM.

The compound `[2H]C([2H])([2H])n1cc(-c2cc(NS(=O)(=O)C3CC3)ccc2N2CC3(CCC3)C2)c2cc[nH]c2c1=O` [Compound 43, N-(3-(6-trideuteromethyl-7-oxo-6,7-dihydro-1H-pyrrolo[2,3-c]pyridin-4-yl)-4-(2-aza-spiro[3.3]heptan-2-yl)phenyl)cyclopropanesulfonamide] displayed an IC50 of 50 nM.

In turn, `[2H]C([2H])([2H])n1cc(-c2cc(NS(C)(=O)=O)ccc2N2CC3(CCC3)C2)c2cc[nH]c2c1=O` [Compound 44, N-(3-(6-trideuteromethyl-7-oxo-6,7-dihydro-1H-pyrrolo[2,3-c]pyridin-4-yl)-4-(2-aza-spiro[3.3]heptan-2-yl)phenyl)methanesulfonamide] registered an IC50 of 45 nM.

On to `[2H]C([2H])([2H])n1cc(-c2cc(NS(=O)(=O)C3COC3)ccc2N2CC3(CCC3)C2)c2cc[nH]c2c1=O` [Compound 45, N-(3-(6-trideuteromethyl-7-oxo-6,7-dihydro-1H-pyrrolo[2,3-c]pyridin-4-yl)-4-(2-aza-spiro[3.3]heptan-2-yl)phenyl) oxetane-3-sulfonamide], for which the IC50 stood at 110 nM.
